Source: the NIST ThermoML archive (doi:10.1016/j.jct.2009.07.010)
± gives the expanded uncertainty stated by the source.

Settings: 298.15 K; 101.33 kPa; Liquid; Vibrating tube method

For `CCn1cc[n+](C)c1.O=S(=O)([O-])C(F)(F)F` [1-ethyl-3-methylimidazolium trifluoromethanesulfonate], the mass density was 1387.07 ± 2.2 kg/m3.
